This is an account of results in US20060115815A1 (priority 2002, published 2006).

One assay relates to mutant HIV-1 with I84V/L90M mutations in the protease gene.
Test: not given
Format: cell-based. The conditions noted are these: I84V/L90M mutant.
`CC(C)CN(CC(O)C(Cc1ccccc1)NC(=O)OC1COC2OCCC12)S(=O)(=O)c1ccc(OCP(=O)(OCc2ccccc2)OCc2ccccc2)cc1` (stereo not shown): the I84V/L90M fold change entry was “+++ (>30)”. Take `CC(C)CN(CC(O)C(Cc1ccccc1)NC(=O)OC1COC2OCCC12)S(=O)(=O)c1cccc(OCP(=O)(O)O)c1` (stereo not shown): the I84V/L90M fold change result is recorded as “+ (>3 to ≦10)”. Same read-out and setting: as for `COc1ccc(S(=O)(=O)N(CCN(C)C)CC(O)C(Cc2ccc(OCc3ccccc3)cc2)NC(=O)OC2COC3OCCC23)cc1` (stereo not shown), the entry is “— (≦3)”.

As for `CC(C)CN(CC(O)C(Cc1ccc(OCP(=O)(OCc2ccccc2)OCc2ccccc2)cc1)NC(=O)OC1COC2OCCC12)S(=O)(=O)c1ccc(OC(F)(F)F)cc1` (stereo not shown), the I84V/L90M fold change entry was “+ (>3 to ≦10)”. Consider `CCOP(=O)(COc1cc(S(=O)(=O)N(CC(C)C)CC(O)C(Cc2ccccc2)NC(=O)OC2COC3OCCC23)ccc1OC)OCC` (stereo not shown), for which the I84V/L90M fold change result is listed as “+ (>3 to ≦10)”. Take `Cc1cccc(C)c1OCC(=O)NC(Cc1ccc(OCP(=O)(O)O)cc1)C(O)CN(CC(C)C)S(=O)(=O)c1ccc(N)cc1` (stereo not shown): the I84V/L90M fold change entry is listed as “+ (>3 to ≦10)”. Still for that read-out and setting: in the case of `CC(C)CN(C[C@@H](O)[C@H](Cc1ccc(OCP(=O)(Oc2ccccc2)Oc2ccccc2)cc1)NC(=O)OC1CCOC1)S(=O)(=O)c1ccc(N)cc1` (stereo partly shown) [NH2, phenol] it was “— (≦3)”. Consider `COc1ccc(S(=O)(=O)N(CCN2CCOCC2)CC(O)C(Cc2ccc(OCP(=O)(OCc3ccccc3)OCc3ccccc3)cc2)NC(=O)OC2COC3OCCC23)cc1` (stereo not shown), for which the I84V/L90M fold change entry is on record as “+ (>3 to ≦10)”.

The assay is the same for the next values; noted with them: fold difference in EC50, mutant vs. wild type.
Take `CCCCOC(=O)C(CC)NP(=O)(COc1ccc(CC(NC(=O)OC2COC3OCCC23)C(O)CN(CC(C)C)S(=O)(=O)c2ccc(OC)cc2)cc1)NC(CC)C(=O)OCCCC` (stereo not shown) [drawing 655 R1=Aba-Bu R2=Aba-Bu]: the I84V/L90M fold change result is reported as “+ (>3 to ≦10)”.

For the molecule `CCOP(=O)(Cc1ccc2c(c1)CCN(CC(NC(=O)OC1COC3OCCC13)C(O)CN(CC(C)C)S(=O)(=O)c1ccc(OC)cc1)C2)OCC` (stereo not shown), the I84V/L90M fold change result is given as “+ (>3 to ≦10)”. On to `CCOP(=O)(Cc1ccc(N(C)CC(NC(=O)OC2COC3OCCC23)C(O)CN(CC(C)C)S(=O)(=O)c2ccc(OC)cc2)cc1)OCC` (stereo not shown), for which the I84V/L90M fold change entry was “+ (>3 to ≦10)”. The same measure, in the same setting: as for `COC(=O)N[C@H](C(=O)N[C@@H](Cc1ccccc1)[C@@H](O)CN(Cc1ccc(-c2ccccn2)cc1)NC(=O)[C@@H](NC(=O)OC)C(C)(C)C)C(C)(C)C` [Atazanavir, reference compound], the entry is “+++ (>30)”; as for `COc1ccc(S(=O)(=O)N(CC(C)C)CC(O)C(CNc2ccc(CP(=O)(O)O)cc2)NC(=O)OC2COC3OCCC23)cc1` (stereo not shown), “+ (>3 to ≦10)”. Same read-out and setting: in the case of `CCOP(=O)(CN1CC=C(CC(NC(=O)OC2COC3OCCC23)C(O)CN(CC(C)C)S(=O)(=O)c2ccc(OC)cc2)CC1)OCC` (stereo not shown) it was “+ (>3 to ≦10)”; in that of `CCOP(=O)(Cc1ccc(NCC(NC(=O)OC2COC3OCCC23)C(O)CN(CC(C)C)S(=O)(=O)c2ccc(OC)cc2)cc1)OCC` (stereo not shown), “+ (>3 to ≦10)”.

Another assay concerns wild-type HIV-1 strain IIIB. The experiment in a line: microbe, parasite or virus in culture. Format: cell-based. The conditions noted are these: Human immunodeficiency virus 1, IIIB, MT2.
In the case of `CCOP(=O)(COc1ccc(S(=O)(=O)N(CC(C)C)CC(O)C(Cc2ccc(N)cc2)NC(=O)OC2COC3OCCC23)cc1)OCC` (stereo not shown) [NH2, OEt], the half-maximal effective concentration (EC50) lay within 50 to 500 nM.

Still in this assay, the particulars now being: read-out: EC50.
On to `CCOP(=O)(CCN1CCN(CC(NC(=O)OC2COC3OCCC23)C(O)CN(CC(C)C)S(=O)(=O)c2ccc(OC)cc2)CC1)OCC` (stereo not shown), for which the concentration giving a half-maximal response (EC50) lay within 50 to 500 nM. On to `COc1ccc(S(=O)(=O)N(CC(C)C)C[C@@H](O)[C@H](Cc2ccc(OCP(=O)(O)NC(C)C(=O)O)cc2)NC(=O)O[C@H]2CO[C@H]3OCC[C@H]32)cc1` (stereo partly shown) [drawing 657 R1=OH R2=Ala-OH], for which the concentration giving a half-maximal response (EC50) was above 5000 nM. As to `CC(C)CN(CC(O)C(Cc1ccc(OCP(=O)(OCc2ccccc2)OC(C)C(=O)OCc2ccccc2)cc1)NC(=O)OC1COC2OCCC12)S(=O)(=O)c1ccc[n+]([O-])c1` (stereo not shown), the EC50 is above 5000 nM. Still for that read-out and setting: in the case of `CCOC(=O)[C@H](C)OP(=O)(COc1ccc(C[C@H](NC(=O)O[C@H]2CO[C@H]3OCC[C@H]32)[C@H](O)CN(CC(C)C)S(=O)(=O)c2ccc(OC)cc2)cc1)Oc1cccc(CN(C)C)c1` (stereo partly drawn) [drawing 660 R1=OPh-m-CH2NMe2 R2=(S)Lac-Et] it was 500 to 5000 nM; in that of `CCOC(=O)C(C)NP(=O)(COc1ccc(C[C@H](NC(=O)O[C@H]2CO[C@H]3OCC[C@H]32)[C@H](O)CN(CC(C)C)S(=O)(=O)c2ccc(OC)cc2)cc1)OCc1ccccc1` (stereo partly shown) [drawing 657 R1=OBn R2=Ala-Et], below 50 nM.

Turning to `CCOP(=O)(COc1ccc(C[C@H](NC(=O)O[C@H]2CO[C@H]3OCC[C@H]32)[C@H](O)CN(CC(C)C)S(=O)(=O)c2ccc([N+](=O)[O-])cc2)cc1)OCC`, the EC50 is below 50 nM. Consider `CCOC(=O)C(C)OP(=O)(COc1ccc(CC(NC(=O)OC2COC3OCCC23)C(O)CN(CC(C)C)S(=O)(=O)c2ccc(CO)cc2)cc1)Oc1ccccc1` (stereo not shown), for which the EC50 was below 50 nM. In the case of `CC(C)CN(C[C@@H](O)[C@H](Cc1ccc(OCP(=O)(OCc2ccccc2)OC(C)C(=O)OCc2ccccc2)cc1)NC(=O)O[C@H]1CO[C@H]2OCC[C@H]21)S(=O)(=O)c1ccccc1` (stereo partly shown), the EC50 lay in the range of 50 to 500 nM.

Consider `COc1ccc(S(=O)(=O)N(CC(C)C)C[C@@H](O)[C@H](Cc2ccc(OCP(=O)(Oc3ccccc3)Oc3ccccc3)cc2)NC(=O)O[C@H]2CO[C@H]3OCC[C@H]32)cc1` [drawing 651 R1=OPh R2=OPh], for which the half-maximal effective concentration (EC50) is below 50 nM.

In the case of `CCOC(=O)C(C)OP(=O)(COc1ccc(CC(NC(=O)OC2COC3OCCC23)C(O)CN(CC(C)C)S(=O)(=O)c2ccc(OC)cc2)cc1)Oc1ccccc1OCC` [drawing 660 R1=OPh-o-OEt R2=(S)Lac-Et], the 50% effective concentration (EC50) is below 50 nM. On to `COc1ccc(S(=O)(=O)N(CCN(C)C)CC(O)C(Cc2ccc(O)cc2)NC(=O)OC2COC3OCCC23)cc1` (stereo not shown), for which the EC50 was in the range of 50 to 500 nM. For `CCOP(=O)(COc1ccc(C[C@H](NC(=O)O[C@H]2CO[C@H]3OCC[C@H]32)[C@H](O)CN(CC(C)C)S(=O)(=O)c2ccc(O)cc2)cc1)OCC` [drawing 652 R1=Et R2=Et], the EC50 is below 50 nM. With `CCCCOC(=O)C(C)OP(=O)(COc1ccc(C[C@H](NC(=O)O[C@H]2CO[C@H]3OCC[C@H]32)[C@H](O)CN(CC(C)C)S(=O)(=O)c2cccc(N)c2)cc1)Oc1ccccc1` (stereo partly shown) [drawing 764], the EC50 is 50 to 500 nM.

Consider `CCCCOC(=O)C(Cc1ccccc1)NP(=O)(COc1ccc(CC(NC(=O)OC2COC3OCCC23)C(O)CN(CC(C)C)S(=O)(=O)c2ccc(OC)cc2)cc1)NC(Cc1ccccc1)C(=O)OCCCC` (stereo not shown) [drawing 655 R1=Phe-Bu R2=Phe-Bu], for which the 50% effective concentration (EC50) is below 50 nM. Take `CC(C)CN(C[C@@H](O)[C@H](Cc1ccc(OCP(=O)(OCc2ccccc2)OCc2ccccc2)cc1)NC(=O)O[C@H]1CO[C@H]2OCC[C@H]21)S(=O)(=O)c1ccc(C(F)(F)F)cc1`: the concentration giving a half-maximal response (EC50) was below 50 nM.

Regarding `CCOC(=O)C(C)OP(=O)(COc1ccc(CC(NC(=O)OC2COC3OCCC23)C(O)CN(CC(C)C)S(=O)(=O)c2ccc(C=O)cc2)cc1)Oc1ccccc1` (stereo not shown), the EC50 was below 50 nM.

For `CCCCc1ccc(OP(=O)(COc2ccc(C[C@H](NC(=O)O[C@H]3CO[C@H]4OCC[C@H]43)[C@H](O)CN(CC(C)C)S(=O)(=O)c3ccc(OC)cc3)cc2)O[C@@H](C)C(=O)OCC)cc1` (stereo partly drawn) [drawing 660 R1=OPh—p-n-But R2=(S)Lac-Et], the EC50 is below 50 nM. Take `CCOC(=O)C(C)OP(=O)(COc1ccc(C[C@H](NC(=O)O[C@H]2CO[C@H]3OCC[C@H]32)[C@H](O)CN(CC(C)C)S(=O)(=O)c2ccc(O)cc2)cc1)Oc1ccccc1` (stereo partly shown): the EC50 is below 50 nM. Take `COc1ccc(S(=O)(=O)N(CC(C)C)CC(O)C(Cc2ccc(OCP(=O)(O)OCc3ccccc3)cc2)NC(=O)OC2COC3OCCC23)cc1` (stereo not shown) [drawing 651 R1=OH R2=OBn]: the EC50 is 500 to 5000 nM. On to `CCOC(=O)C(C)OP(=O)(COc1ccc(CC(NC(=O)OC2COC3OCCC23)C(O)CN(CC(C)C)S(=O)(=O)c2ccc(OC)cc2)cc1)OCC(F)(F)F` (stereo not shown) [drawing 658 R1=OCH2CF3 R2=Lac-Et], for which the EC50 lay in the range of 50 to 500 nM. `CCOC(=O)C(CC)NP(=O)(COc1ccc(C[C@H](NC(=O)O[C@H]2CO[C@H]3OCC[C@H]32)[C@H](O)CN(CC(C)C)S(=O)(=O)c2ccc(OC)cc2)cc1)NC(CC)C(=O)OCC` (stereo partly shown) [drawing 655 R1=Aba-Et R2=Aba-Et]: the EC50 is below 50 nM.

Turning to `CCCCCCCCc1ccc(OP(=O)(COc2ccc(C[C@H](NC(=O)O[C@H]3CO[C@H]4OCC[C@H]43)[C@H](O)CN(CC(C)C)S(=O)(=O)c3ccc(OC)cc3)cc2)O[C@@H](C)C(=O)OCC)cc1` (stereo partly drawn) [drawing 660 R1=OPh—p-n-Oct R2=(S)Lac-Et], the EC50 fell in the range of 50 to 500 nM. Take `COC(=O)C(C)OP(=O)(COc1ccc(C[C@H](NC(=O)O[C@H]2CO[C@H]3OCC[C@H]32)[C@H](O)CN(CC(C)C)S(=O)(=O)c2ccc(OC)cc2)cc1)Oc1ccccc1` (stereo partly shown) [drawing 658 R1=OPh R2=Lac-Me]: the EC50 lay within 50 to 500 nM.

In the case of `CCOP(=O)(OCC)c1ccc(CNCC(NC(=O)OC2COC3OCCC23)C(O)CN(CC(C)C)S(=O)(=O)c2ccc(OC)cc2)cc1` (stereo not shown), the half-maximal effective concentration (EC50) was below 50 nM.

For the molecule `COc1ccc(S(=O)(=O)N(CC(C)C)CC(O)C(CC2=CCN(CCP(=O)(O)OC(C)C(=O)O)CC2)NC(=O)OC2COC3OCCC23)cc1` (stereo not shown), the EC50 was above 5000 nM. For the molecule `CCOC(=O)C(C)OP(=O)(CCN1CC=C(CC(NC(=O)OC2COC3OCCC23)C(O)CN(CC(C)C)S(=O)(=O)c2ccc(OC)cc2)CC1)Oc1ccccc1` (stereo not shown), the concentration for a half-maximal effect (EC50) is above 5000 nM. For the molecule `CCOC(=O)C(C)OP(=O)(Cc1ccc(N(C)CC(NC(=O)OC2COC3OCCC23)C(O)CN(CC(C)C)S(=O)(=O)c2ccc(OC)cc2)cc1)Oc1ccccc1` (stereo not shown), the EC50 was below 50 nM. Turning to `CCOC(=O)COP(=O)(COc1ccc(C[C@H](NC(=O)O[C@H]2CO[C@H]3OCC[C@H]32)[C@H](O)CN(CC(C)C)S(=O)(=O)c2ccc(OC)cc2)cc1)OCC(=O)OCC` [drawing 656 R1=Glc-Et R2=Glc-Et], the EC50 was 500 to 5000 nM.

As to `CCOC(=O)[C@H](C)OP(=O)(COc1ccc(C[C@H](NC(=O)O[C@H]2CO[C@H]3OCC[C@H]32)[C@H](O)CN(CC(C)C)S(=O)(=O)c2ccc(OC)cc2)cc1)Oc1cccc(CO)c1` (stereo partly drawn) [drawing 660 R1=OPh-m-CH2OH R2=(S)Lac-Et], the half-maximal effective concentration (EC50) was 50 to 500 nM. Still for that read-out and setting: in the case of `CCCCOC(=O)C(C)NP(=O)(O)COc1ccc(C[C@H](NC(=O)O[C@H]2CO[C@H]3OCC[C@H]32)[C@H](O)CN(CC(C)C)S(=O)(=O)c2ccc(OC)cc2)cc1` (stereo partly shown) [drawing 657 R1=OH R2=Ala-Bu] it was above 5000 nM.
